The test system of test [1] is cytokine (IL-1 and IFN-γ) insufflated rats. Briefly: IL-1 and IFN-γ insufflation inflammatory acute lung injury (ARDS) in rats. It is filed as in vivo. The procedure: Insufflating IL-1 and interferon-γ (IFN-γ) produced an inflammatory acute lung injury (ARDS) in rats 24 hours later (9). Cytokine insufflated rats had increased lung lavage LDH concentrations (FIG. 2A) and neutrophil numbers (FIG. 2B) compared to saline insufflated control rats. […] Lavage LDH levels paralleled other measures of lung injury including increased epithelial-derived cytokeratin 18 and endothelial-derived angiotensin converting enzyme (ACE) levels and morphologic evidence of inflammation and injury.
Remarkably, protection occurred with ERGO administered post-insult even after some neutrophils had invaded the lung.
[…] Each value is the mean +/−SEM of 3 to 6 determinations.

Another test relates to IL-1 insufflated rats. Briefly: IL-1 insufflation inflammatory acute lung injury (ARDS) in rats. The following applies: NAC 150 mg/kg intravenously either just before or 2½ hours after IL-1 insufflation; 5 hours; compared to untreated IL-1 insufflated rats. It is filed as in vivo. The method, then:
Insufflating IL-1 produced an inflammatory acute lung injury (ARDS, FIG. 1A) in rats 5 hours later, which was associated with increases in lung lavage neutrophils (FIG. 1B), expired H2O2 levels (FIG. 1C) and lung GSSG levels (FIG. 1D). In contrast, rats administered NAC (150 mg/kg intravenously) either just before or 2½ hours after IL-1 insufflation had decreased lung leak index, lung lavage neutrophil numbers, expired H2O2 levels and lung GSSG levels compared to untreated rats insufflated with IL-1.

The mark [2] stands for this setting: single intravenous bolus 15 mg/kg, 1 hour before cytokine insufflation, compared to untreated cytokine insufflated rats.
Where [3] appears, read: single intravenous bolus 150 mg/kg, 18 hours after cytokine insufflation, compared to untreated cytokine insufflated rats.
Where [4] appears, read: single intravenous injection 150 mg/kg, 1 hour before IL-1 and IFN-γ insufflation, 24 hours.

With `C[N+](C)(C)[C@@H](Cc1c[nH]c(=S)[nH]1)C(=O)[O-]` [ERGO, ergothioneine], in test [1] (setting [2]), the lung injury result is reported as “less” and the lung neutrophils result is listed as “less”. In test [1] (setting [3]), the lung neutrophil numbers result is “reduction in the severity” and the “markers of alveolar capillary membrane injury” value is recorded as “reduction in the severity”. Further, the lung inflammation result in test [1] (single intravenous bolus 150 mg/kg, 18 hours after cytokine insufflation, data not shown) is listed as “reduction in the severity”. Also, in test [1] (setting [4]), the “lung lavage LDH concentrations” value is listed as “decreased”, the “lung lavage neutrophil concentrations” value is on record as “decreased” and the “lung lavage total leukocyte concentrations” value is “decreased”.
`CC(=O)N[C@@H](CS)C(=O)O` [NAC, N-acetylcysteine]: in the test with IL-1 insufflated rats, the “expired H2O2 levels” value was “decreased”, the “lung GSSG levels” value is reported as “decreased”, the “lung lavage neutrophil numbers” value is recorded as “decreased” and the lung leak index entry is “decreased”.

(Values after patent US9383348B2, “Compositions and methods for treating lung disorders” (priority 2008, dated 2016).)
